Data from US20210015134A1, “CONSUMABLES” (Givaudan S.A., priority 2006, published 2021).

Experiments:
Assay type in all cases: in vivo
[1] = tested on: sweet sensitive panelists; experiment: Ranking test, sweetness isointensity of enhancer in sweetener solution (Example 3a)
Procedure: Ranking Tests to Determine the Sweetness Isointensity of Sweetness Enhancers to Sucrose Solutions
For comparative ranking, samples of 0.5%, 1%, 1.5%, 7%, 8%, 9%, 10% and 11% sucrose solutions were prepared.
3a) Sweetness Isointensity of Sweetness Enhancer in Sucrose Solutions
The sensory evaluation was conducted using a ranking method. Samples at ambient temperature were randomly presented in 15 ml blind aliquots (unidentifiable by panelists). Panels consisted of 10 sweet sensitive subjects and samples were presented in 4 replications over 2 sessions. After tasting each sample, the mouth was rinsed thoroughly with water at ambient temperature prior to tasting the next sample. Panelists were presented with 7%, 8%, 9%, 10%, 11% sucrose samples and a sixth sample of 7% sucrose with a sweetness enhancer in a concentration near its sweetness detection threshold. They were asked to rank the samples from low to high with respect to perceived sweet taste. R-indices were calculated for 7% sucrose with the sweetness enhancer versus 7%, 8%, 9%, 10% or 11% sucrose.

[2] = tested on: sweet sensitive panelists; experiment: Comparative sensory evaluation of sweetness enhancers in sweetener solution or water (Example 1)
Procedure: Comparative sensory evaluation of sweetness enhancers in 2 or 7% sucrose
The test samples contained the potential sweetness enhancers in 0% sucrose (water), 2% sucrose, or 7% sucrose, and control samples of 0%, 2% and 7% sucrose without any additive. The sensory evaluations were conducted as follows. All samples were presented at ambient temperature in 15 ml aliquots to panels consisting of 5-9 sweet sensitive subjects of varying sweet sensitivity. After tasting each sample, the mouth was rinsed thoroughly with water at ambient temperature prior to tasting the next sample. The sucrose positive control (2% or 7%) was presented first and served as the sweetness reference to which all sweetness enhancer/sucrose combinations were directly compared.
One tasting sequence included tasting the sucrose control first, rinsing with water, tasting the sweetness enhancer/sucrose sample, rinsing with water followed by tasting the sucrose control again. Once the sequence was completed, each panelist chose the sample which was sweeter and evaluated the sweetness of each sample relative to one another.
In a second tasting sequence, this same procedure was followed for the water negative control versus the sweetness enhancer/water samples to determine the sweet taste due to the sweetness enhancer itself at each tested concentration.
Panelists evaluated the sweetness of the sweetness enhancer in water for each concentration. For their evaluation, panelists were allowed to compare any perceived sweetness of the sweetness enhancer to the 2% or 7% sucrose control to determine the relative intensity of sweetness. Mild sweet taste corresponds to the taste of 2% sucrose, strong sweet taste corresponds to the taste of 7% sucrose.
Alternatively to sucrose, the evaluation may be performed with another sweetener, for example, high fructose (55%) corn syrup (HFCS, containing 55% fructose and 45% glucose), erythritol, sucralose, aspartame, or acesulfame potassium (AceK).

[3] = tested on: sweet sensitive panelists; experiment: Paired comparison of sweetness enhancers in water versus sucrose (Example 4, modified)
Procedure: Paired Comparisons of Sweetness Enhancers and Mixtures Thereof in Water and 7% Sucrose
Samples of sweetness enhancers were prepared in water or 7% sucrose. One, two or three sweetness enhancers were used in a sample. All samples were presented to panelists at ambient temperature. The sensory evaluation was conducted using a paired comparison method. […] Samples were paired randomly and presented in unidentifiable pairs of two (left and right) to the panelists in random order. The sample on the left was tasted first, followed by rinsing the mouth with water, then tasting the sample on the right. Once completing the sequence, each panelist ranked the pair of samples for sweetness then evaluated samples with respect to one another with the following descriptors (in ascending order): […]

[4] = tested on: sweet sensitive subjects; experiment: Sweetness quality evaluation (time of onset, localization, duration); conditions: for Sensory evaluation of sweetness intensity: sweetness quality
Procedure: (§1) Rebaudioside A (99%+, purified from plant extract, Sweet Aloha Farms, LLC) (1 ppm, 10 ppm, 20 ppm, 30 ppm) in 2% sucrose samples was evaluated for the qualities of the sweetness of the samples (time of onset, localization, duration). The sensory evaluations were conducted as follows. All samples were presented at ambient temperature in 15 ml aliquots and presented blindly to sweet sensitive subjects of varying sweet sensitivity. Subjects tasted the samples and were asked to evaluate the quality of sweetness. Sucrose solutions (2% and 7%) were presented as references.
Rebaudioside A (99%+, purified from plant extract, Sweet Aloha Farms, LLC) (1 ppm, 10 ppm, 20 ppm, 30 ppm) in 7% sucrose samples were evaluated for the qualities of the sweetness of the samples (time of onset, localization, duration). The sensory evaluations were conducted as follows. All samples were presented at ambient temperature in 15 ml aliquots and presented blindly to sweet sensitive subjects of varying sweet sensitivity. Subjects tasted the samples and were asked to evaluate the quality of the sweetness. Sucrose solutions (2% and 7%) were presented as references to evaluate the sweetness of the rebaudioside A samples.
as §1, with “Stevioside extract (95%+,” for “Rebaudioside A (99%+,”, “Apin Chemicals) (20” for “Sweet Aloha Farms, LLC) (1 ppm, 10 ppm, 20”, “30 ppm, 40 ppm, 50” for “30”, “ppm) was evaluated” for “ppm)”, “sucrose” for “sucrose samples was evaluated”, “sweetness qualities.” for “quality of sweetness.”
Stevioside (20 ppm, 30 ppm, 40 ppm, 50 ppm) was evaluated in 7% sucrose for the qualities of the sweetness of the samples (time of onset, localization, duration). The sensory evaluations were conducted as follows. All samples were presented at ambient temperature in 15 ml aliquots and presented blindly to sweet sensitive subjects of varying sweet sensitivity. Subjects tasted the samples and were asked to evaluate the sweetness qualities. Sucrose solutions (2% and 7%) were presented as references to evaluate the sweetness of the stevioside samples.

[5] = tested on: sweet sensitive panelists; experiment: Ranking test, near threshold sweetness isointensity of enhancer in water (Example 3b); conditions: for isointensity to sucrose solution: 20 ppm in water, by interpolation
Procedure: The sensory evaluation was conducted using a ranking method. Samples at ambient temperature were randomly presented in 15 ml blind aliquots (unidentifiable by panelists). […] After tasting each sample, the mouth was rinsed thoroughly with water at ambient temperature prior to tasting the next sample. […] They were asked to rank the samples from low to high with respect to perceived sweet taste.

[6] = tested on: panelists; experiment: Fractionated swingle extract: comparative sensory evaluation in 0% and 2% sucrose; conditions: from fractions at 60 ppm in 2% sucrose and LC-MS analysis
Procedure: Swingle extract, comprising 80% total mogroside content by weight, was fractionated by reversed phase (C-18) flash chromatography. Compounds were eluted using a mixture of methanol (MeOH) in water starting at 30% MeOH (264 ml) followed by a linear gradient of 30-80% MeOH (1320 ml) then finally the column was flushed with 80% MeOH (264 ml). The solvents were introduced at a flow rate of 30 ml/min throughout the separation procedure. Eluted compounds were visualized with a UV detector set at 210 nm and a Corona light scattering detector. Collected fractions were pooled according to the table below then freeze dried to powders.
The powders corresponding to various pooled fractions as given in the table below were dissolved in a concentration of 60 ppm in either 0% or 2% sucrose. The sample in 0% sucrose when determined to be sweet was in addition to the 0% sucrose control also compared to a 2% sucrose control and to the other fractions to estimate the degree of sweetness.

[7] = 20 ppm in 7% sucrose vs 7% sucrose
[8] = 20 ppm in 7% sucrose vs 8% sucrose
[9] = 20 ppm in 7% sucrose vs 9% sucrose
[10] = 20 ppm in 7% sucrose vs 10% sucrose
[11] = 20 ppm in 7% sucrose vs 11% sucrose
[12] = 20 ppm in water vs 0.5% sucrose
[13] = 20 ppm in water vs 1.5% sucrose

C=C1C[C@@]23CC[C@H]4[C@@](C)(CCC[C@@]4(C)C(=O)O[C@@H]4O[C@H](CO)[C@@H](O)[C@H](O)[C@H]4O)[C@@H]2CC[C@]1(O[C@@H]1O[C@H](CO)[C@@H](O)[C@H](O[C@@H]2O[C@H](CO)[C@@H](O)[C@H](O)[C@H]2O)[C@H]1O[C@@H]1O[C@H](CO)[C@@H](O)[C@H](O)[C@H]1O)C3 [Rebaudioside A]
R-index [1, 7]: 91% | Rebaudioside A sample sweetness [1, 7]: sweeter | R-index [1, 8]: 72% | Rebaudioside A sample sweetness [1, 8]: sweeter | R-index [1, 9]: 7% | Rebaudioside A sample sweetness [1, 9]: less sweet | R-index [1, 10]: 0% | Rebaudioside A sample sweetness [1, 10]: less sweet | R-index [1, 11]: 0% | Rebaudioside A sample sweetness [1, 11]: less sweet | sweetness isointensity to sucrose ([1]; 20 ppm in 7% sucrose, by interpolation): 8.5 % sucrose | Sensory evaluation of sweetness intensity ([2]; 1 ppm in 2% sucrose): barely perceived as sweeter than sucrose control | Sensory evaluation of sweetness intensity ([2]; 1 ppm in 7% sucrose): very weakly sweeter than sucrose control | Sensory evaluation of sweetness intensity ([2]; 1 ppm in water (Example 8A)): no sweetness | Sensory evaluation of sweetness intensity ([2]; 1 ppm in water (Example 8B)): no sweetness | Sensory evaluation of sweetness intensity ([2]; 10 ppm in 2% sucrose): notably sweeter than sucrose control | Sensory evaluation of sweetness intensity ([2]; 10 ppm in 7% sucrose): notably sweeter than sucrose control | Sensory evaluation of sweetness intensity ([2]; 10 ppm in water (Example 8A)): barely perceivable, late onsetting sweet | Sensory evaluation of sweetness intensity ([2]; 10 ppm in water (Example 8B)): barely perceivable, late onsetting sweet | Sensory evaluation of sweetness intensity ([2]; 20 ppm in 2% sucrose): much sweeter than sucrose control | Sensory evaluation of sweetness intensity ([2]; 20 ppm in 7% sucrose): much sweeter than sucrose control | Sensory evaluation of sweetness intensity ([2]; 20 ppm in water (Example 8A)): barely perceivable sweetness | Sensory evaluation of sweetness intensity ([2]; 20 ppm in water (Example 8B)): barely perceivable sweetness | Sensory evaluation of sweetness intensity ([2]; 30 ppm in 2% sucrose): substantially sweeter than sucrose control | Sensory evaluation of sweetness intensity ([2]; 30 ppm in 7% sucrose): substantially sweeter than sucrose control | Sensory evaluation of sweetness intensity ([2]; 30 ppm in water (Example 8A)): very weak sweetness far below the 2% sucrose control | Sensory evaluation of sweetness intensity ([2]; 30 ppm in water (Example 8B)): very weak sweetness far below the 2% sucrose control | Result of comparison ([3]; 1 ppm in water vs 0% sucrose): isosweet | Result of comparison ([3]; 10 ppm in water vs 0% sucrose): weakly sweeter | Result of comparison ([3]; 10 ppm in water vs 0.5% sucrose): notably less sweet | Result of comparison [3, 12]: notably sweeter | Result of comparison ([3]; 20 ppm in water vs 1% sucrose): less sweet | isointensity to sucrose solution ([3]; 30 ppm in water): 1 % sucrose | Result of comparison ([3]; 30 ppm in water vs 1% sucrose): isosweet | Result of comparison ([3]; 30 ppm in water vs 1.5% sucrose): significantly less sweet | Sensory evaluation of sweetness intensity (strength, onset, localisation, duration) ([4]; 1 ppm in 7% sucrose): immediate onset, full mouth sweet, non-lingering | Sensory evaluation of sweetness intensity (strength, onset, localisation, duration) ([4]; 10 ppm in 7% sucrose): immediate onset, full mouth sweet, non-lingering | Sensory evaluation of sweetness intensity (strength, onset, localisation, duration) ([4]; 20 ppm in 7% sucrose): immediate onset, full mouth sweet, non-lingering | Sensory evaluation of sweetness intensity ([4]; 1 ppm in 2% sucrose): immediate onset, full mouth sweet, non-lingering | Sensory evaluation of sweetness intensity ([4]; 10 ppm in 2% sucrose): immediate onset full mouth sweet, non-lingering | Sensory evaluation of sweetness intensity ([4]; 20 ppm in 2% sucrose): immediate onset, full mouth sweet, non-lingering | R-index [5, 12]: 84% | sample sweetness (RedA, 20 ppm) [5, 12]: sweeter | R-index ([5]; 20 ppm in water vs 1% sucrose): 12% | sample sweetness (RedA, 20 ppm) ([5]; 20 ppm in water vs 1% sucrose): less sweet | R-index [5, 13]: 0% | sample sweetness (RedA, 20 ppm) [5, 13]: less sweet | isointensity to sucrose solution ([5]; listed as rebaudioside): about 0.75 % sucrose | isointensity to sucrose solution ([5]; listed as rebaudioside A): 0.75 % sucrose

C[C@H](CC[C@@H](O[C@@H]1O[C@H](CO)[C@@H](O)[C@H](O)[C@H]1O[C@@H]1O[C@H](CO)[C@@H](O)[C@H](O)[C@H]1O)C(C)(C)O)[C@H]1CC[C@@]2(C)[C@H]3CC=C4[C@@H](CC[C@H](O[C@@H]5O[C@H](CO[C@@H]6O[C@H](CO)[C@@H](O)[C@H](O)[C@H]6O)[C@@H](O)[C@H](O)[C@H]5O)C4(C)C)[C@]3(C)[C@H](O)C[C@]12C [mogroside IV]
contribution to the observed enhancement effect of swingle extract [6]: contributing marginally

C[C@H](CC[C@@H](O[C@@H]1O[C@H](CO[C@@H]2O[C@H](CO)[C@@H](O)[C@H](O)[C@H]2O)[C@@H](O)[C@H](O)[C@H]1O[C@@H]1O[C@H](CO)[C@@H](O)[C@H](O)[C@H]1O)C(C)(C)O)[C@H]1CC[C@@]2(C)[C@@H]3CC=C4[C@@H](CC[C@H](O[C@@H]5O[C@H](CO[C@@H]6O[C@H](CO)[C@@H](O)[C@H](O)[C@H]6O)[C@@H](O)[C@H](O)[C@H]5O)C4(C)C)[C@]3(C)[C@H](O)C[C@]12C [mogroside V]
contribution to the observed enhancement effect of swingle extract [6]: mainly due to mogroside V

C[C@H](CC[C@@H](O[C@@H]1O[C@H](CO[C@@H]2O[C@H](CO)[C@@H](O)[C@H](O)[C@H]2O)[C@@H](O)[C@H](O)[C@H]1O[C@@H]1O[C@H](CO)[C@@H](O)[C@H](O)[C@H]1O)C(C)(C)O)[C@H]1CC[C@@]2(C)[C@@H]3CC=C4[C@@H](CC[C@H](O[C@@H]5O[C@H](CO)[C@@H](O)[C@H](O)[C@H]5O)C4(C)C)[C@]3(C)[C@H](O)C[C@]12C [siamenoside I]
contribution to the observed enhancement effect of swingle extract [6]: contributing marginally
